# According to article PMC3989841 (Journal of nuclear medicine : official publication, Society …, 2013):
# Where “and” joins values, the source holds several entries; their conditions need not be identical. Identical values can stand only once.
# Legend:
# [1] = mean of subjects with reduced renal function
# Red cell = conditions: mean ± SD of 8 subjects with chronic kidney disease
# [2] = mean ± SD, subjects with chronic kidney disease
# [3] = Percentage injected dose in urine, voided at 30 and 180 min; conditions: for Percentage of injected dose in urine: individual patients 1–8; for Percentage of injected dose in urine, mean ± SD: mean ± SD of 8 subjects
# Plasma protein binding = conditions: mean ± SD of 8 subjects with chronic kidney disease
# [4] = normal renal function; cited from earlier work
# [5] = renal extraction; cited from earlier work
SMILES,Mean plasma clearance (not normalised to body surface) [1] [mL/min],"RBC (%) (red cell uptake), mean ± SD (Red cell)","RBC (%) (red cell uptake), mean ± SD (Red cell; listed as OIH)",Relative uptake in the left kidney [2],Percentage of injected dose in urine ([3]; 30 min after injection),"Percentage of injected dose in urine, mean ± SD ([3]; 30 min after injection) [%]","Percentage of injected dose in urine, mean ± SD ([3]; 180 min (3 h) after injection)","Percentage of injected dose in urine, mean ± SD ([3]; 180 min (3 h) after injection, listed as OIH) [%]",Percentage of injected dose in urine ([3]; 180 min after injection),"PPB (%), mean ± SD (Plasma protein binding) [%]",Normal plasma clearance [4] [mL/min],Extraction fraction [5]
"O=C(O)CNC(=O)c1ccccc1[131I] [^131I-OIH, ^131I-o-iodohippuran]",198,16% ± 2%,16 ± 2,55.5% ± 8.1%,46% and 47% and 24% and 38% and 50% and 42% and 41% and 33%,40 ± 8,78% ± 11%,78 ± 11,81% and 59% and 76% and 98% and 75% and 77% and 79%,71 ± 5,472 to 530,–
"O=C([O-])CN(CCN(CC(=O)[O-])CC(=O)[O-])CCN(CC(=O)[O-])CC(=O)[O-].[99Tc+4] [^99mTc-DTPA, ^99mTc-diethyltriaminepentaacetic acid]",–,–,–,–,–,–,–,–,–,–,–,approximately 20%
